From patent US10106542B2, “Substituted 6,7-dihydropyrazolo[1,5-a]pyrazines as negative allosteric modulators of mGluR2 receptors” (Janssen Pharmaceutica NV, priority 2013, dated 2018)

Legend:
[1] = molecular target: T1, human mGlu2 receptor (Homo sapiens, UniProt Q14416); experiment: [35S]GTPγS binding assay (mGluR2 negative allosteric modulation); type: biochemical; details: for IC50: read-out: GTPγS - hmGluR2 anGT pIC50 (converted); for Emax: relative maximal effect: maximal % inhibition relative to the control glutamate response, read-out: GTPγS - hmGluR2 anGT Emax
T1 construct: expressed in transfected cells; host or cells: CHO cells (membrane preparation)
Outline: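 Membranes from butyrate-stimulated CHO cells expressing human mGlu2; 7 μg protein in HEPES pH 7.4, 100 mM NaCl, 3 mM MgCl2, 10 μM GDP, 10 μg/ml saponin. Compound tested against EC80-equivalent glutamate; 0.1 nM [35S]GTPγS, 30 min, 30 °C; filtration, scintillation counting. Data as % of control glutamate response.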

[2] = tested on: rats; experiment: Reversal of the effect of the mGluR2 PAM JNJ-42153605 on scopolamine-induced hyperlocomotion; type: in vivo; details: Rattus norvegicus, 1 h, test compound 60 min before recording, criterion total distance >1500 cm
Protocol: 2) Reversal of the Effect of the mGluR2 PAM JNJ-42153605 on Scopolamine-Induced Hyperlocomotion Apparatus
Motor activity was measured in microprocessor-based motor activity arenas (closed gray PVC cylinders with a height of 39 cm and a diameter of 31 cm). Each arena was placed on an infrared LED (8×8 LEDs) lit box (white PVC squared box; 40×40 cm^2; height 12.5 cm. An infrared-sensitive tube camera and a white light source were mounted to the ceiling above the observation chamber to track the animal. The total distance traveled (cm) was recorded and analyzed using the Noldus Ethovision XT Video Tracking System (Version 7.0.418; Noldus, Wageningen, The Netherlands). The intensity of the light within the activity cages (measured in the centre at the level of the floor) ranged between 4 and 8 LUX.
The rats were pretreated with test compound or vehicle at 60 min before the start of the activity recordings and placed into individual cages. The rats were challenged with JNJ-42153605 (3-(cyclopropylmethyl)-7-(4-phenylpiperidin-1-yl)-8-(trifluoromethyl)[1,2,4]triazolo[4,3-a]pyridine; WO2010/130424; Cid et al. J. Med. Chem. 2012, 55, 8770-8789) (20 mg/kg, i.v.) 30 min before the start of the activity recording combined with scopolamine (0.16 mg/kg, i.v.) just before the start of the activity measurements Immediately after the injection of scopolamine, the rats were placed into the activity monitors and total distance travelled over the first 30 min was measured.
Animals receiving the combination of JNJ-42153605 and scopolamine (n=433) almost always travelled a distance of less than 1500 cm (<1500 cm) (only 2.5% of the control rats travelled a distance of more than 1500 cm (>1500 cm)). On the other hand, animals challenged with scopolamine alone (n=215) always travelled a total distance of more than 1500 cm (>1500 cm) and almost always (in 95.8% of the rats) a distance of more than 4400 cm (>4400 cm). […] For reversal of the inhibitory effect of JNJ-42153605 on the scopolamine-induced hyperlocomotion, two all-or-none criteria were adopted: (1) reversal: total distance >1500 cm; (2) normalization: total distance >4400 cm.

[3] = membranes from CHO cells transfected with human mGlu2 receptor, glutamate 60 μM, pIC50 = −log IC50 (M)

T1 sequence (Q14416 19-872): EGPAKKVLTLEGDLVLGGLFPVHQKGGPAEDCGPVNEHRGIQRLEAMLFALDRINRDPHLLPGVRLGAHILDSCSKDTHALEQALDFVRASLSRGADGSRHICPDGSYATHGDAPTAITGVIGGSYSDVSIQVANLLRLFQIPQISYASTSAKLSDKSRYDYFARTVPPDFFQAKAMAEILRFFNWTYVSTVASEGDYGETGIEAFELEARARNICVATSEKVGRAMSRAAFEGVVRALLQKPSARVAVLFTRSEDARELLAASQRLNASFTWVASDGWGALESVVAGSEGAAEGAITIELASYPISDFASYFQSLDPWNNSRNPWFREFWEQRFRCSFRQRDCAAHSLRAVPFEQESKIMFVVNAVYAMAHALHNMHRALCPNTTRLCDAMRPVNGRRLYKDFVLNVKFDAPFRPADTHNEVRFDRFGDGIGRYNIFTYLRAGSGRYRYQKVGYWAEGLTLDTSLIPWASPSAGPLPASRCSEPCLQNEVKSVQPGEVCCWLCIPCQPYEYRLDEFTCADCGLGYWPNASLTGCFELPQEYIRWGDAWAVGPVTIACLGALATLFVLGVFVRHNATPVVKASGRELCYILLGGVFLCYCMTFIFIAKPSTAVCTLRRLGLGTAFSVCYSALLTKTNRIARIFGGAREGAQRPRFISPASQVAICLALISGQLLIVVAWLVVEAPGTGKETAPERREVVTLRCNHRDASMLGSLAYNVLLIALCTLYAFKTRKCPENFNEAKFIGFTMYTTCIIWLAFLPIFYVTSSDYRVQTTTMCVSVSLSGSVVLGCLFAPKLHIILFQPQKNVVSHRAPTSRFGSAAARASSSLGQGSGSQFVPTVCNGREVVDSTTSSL

| Structure (SMILES) | IC50 [1, 3] | Emax [1] | ED50 ([2]; Route PO) | melting point | ED50 ([2]; Route SC) | GTPγS - hmGluR2 anGT pIC50 [1, 3] |
| --- | --- | --- | --- | --- | --- | --- |
| Cc1cc(-c2cnn3c2C(=O)N(c2ccc(C(F)(F)F)c(Cl)c2)C[C@@H]3C)ccn1 [compound 3] | 1.78e-09 M | 106% | 1.99 mg/kg | – | – | – |
| Cc1cc(-c2cnn3c2C(=O)N(c2ccc(S(F)(F)(F)(F)F)cc2)C[C@@H]3C)ccn1 [compound 4] | 3.31e-09 M | 104% | 1.26 mg/kg | 247 °C | – | – |
| Cc1cc(-c2cnn3c2C(=O)N(c2ccc(Cl)c(Cl)c2)C[C@@H]3C)ccn1 [compound 6] | 5.01e-09 M | 106% | 0.8 mg/kg | – | – | – |
| Cc1cc(-c2cnn3c2C(=O)N(c2ccc(Cl)c(C(F)(F)F)c2)C[C@@H]3C)ccn1 [compound 9] | 1.05e-08 M | 103% | ≥ 2.5 mg/kg | 143.6 °C | – | – |
| Cc1cc(-c2cnn3c2C(=O)N(c2ccc(C(F)(F)F)c(F)c2)C[C@@H]3C)ccn1 [compound 10] | 1.17e-08 M | 104% | 0.79 mg/kg | – | – | – |
| COc1cc(N2C[C@H](C)n3ncc(-c4ccnc(C)c4)c3C2=O)ccc1C(F)(F)F [compound 12] | 1.95e-08 M | 104% | 1.25 mg/kg | – | – | – |
| Cc1cc(-c2cnn3c2C(=O)N(c2ccc(C(F)(F)F)c(C#N)c2)C[C@@H]3C)ccn1 [compound 13] | 2.95e-08 M | 103% | 7.94 mg/kg | 128.9 °C | – | – |
| Cc1cc(-c2cnn3c2C(=O)N(c2ccc(C(F)(F)F)cc2)C[C@@H]3C)cc(C)n1 [compound 14] | 2.4e-08 M | 104% | 5 mg/kg | – | – | – |
| Cc1cc(-c2cnn3c2C(=O)N(c2cccc(Cl)c2)C[C@@H]3C)ccn1 [compound 16] | 5.13e-08 M | 102% | – | – | ≥ 10 mg/kg | – |
| CCOc1cc(N2C[C@H](C)n3ncc(-c4ccnc(C)c4)c3C2=O)ccc1Cl [compound 18] | 5.25e-08 M | 102% | ≥ 10 mg/kg | 98.5 °C | – | – |
| COc1cc(N2C[C@H](C)n3ncc(-c4ccnc(C)c4)c3C2=O)ccc1Cl [compound 19] | 6.92e-08 M | 105% | ≥ 10 mg/kg | 137 °C | – | – |
| Cc1cc(-c2cnn3c2C(=O)N(c2ccc(C(F)(F)F)c(Cl)c2)C[C@@H]3C)cc(C)n1 [compound 43] | 2.88e-09 M | 107% | 1.26 mg/kg | – | – | – |
| Cc1cc(-c2cnn3c2C(=O)N(c2ccc(Cl)c(Cl)c2)C[C@@H]3C)cc(C)n1 [compound 47] | 6.46e-09 M | 105% | 1.99 mg/kg | – | – | – |
| CNc1cc(-c2cnn3c2C(=O)N(c2ccc(C(F)(F)F)c(Cl)c2)C[C@@H]3C)cc(C#N)n1 [compound 95] | 1.78e-09 M | 110% | > 2.5 mg/kg | 210.61 °C (dec.) | – | – |
| C[C@H]1CN(c2ccc(C(F)(F)F)cc2)C(=O)c2c(-c3ccnc(C(F)(F)F)c3)cnn21 [compound 99] | 1.45e-08 M | 108% | ≥ 2.5 mg/kg | 126.4 °C | – | – |
| C[C@H]1CN(c2ccc(C(F)(F)F)c(Cl)c2)C(=O)c2c(-c3ccnc(C#N)c3)cnn21 [compound 100] | – | 109% | > 10 mg/kg | 144.9 °C | – | 8.16 |

| Structure (SMILES) | IC50 [1, 3] | Emax [1] | ED50 ([2]; Route PO) | melting point | ED50 ([2]; Route SC) | GTPγS - hmGluR2 anGT pIC50 [1, 3] |
| --- | --- | --- | --- | --- | --- | --- |
| C[C@H]1CN(c2ccc(C(F)(F)F)cc2)C(=O)c2c(-c3ccnc(N4CCC4)c3)cnn21 [compound 102] | 8.32e-09 M | 107% | ≥ 2.5 mg/kg | 129.8 °C | – | – |
| CNc1cc(-c2cnn3c2C(=O)N(c2ccc(C(F)(F)F)c(Cl)c2)C[C@@H]3C)ccn1 [compound 103] | – | – | 0.96 mg/kg | – | – | – |
| COc1cc(-c2cnn3c2C(=O)N(c2ccc(C(F)(F)F)c(Cl)c2)C[C@@H]3C)ccn1 [compound 104] | 3.72e-09 M | 108% | ≥ 2.5 mg/kg | – | – | – |
| COc1cc(-c2cnn3c2C(=O)N(c2ccc(Cl)c(Cl)c2)C[C@@H]3C)ccn1 [compound 142] | 6.61e-09 M | 105% | 1.99 mg/kg | – | – | – |
| CNc1cc(-c2cnn3c2C(=O)N(c2ccc(C(F)(F)F)cn2)C[C@@H]3C)ccn1 [compound 210] | 2.34e-08 M | 105% | – | 125.66 °C (dec.) | – | – |
| Cc1cc(-c2cnn3c2C(=O)N(c2ccc(C(F)(F)F)cc2)CC3C(C)O)ccn1 (stereo not shown) [compound 217] | 4.47e-06 M | 97% | – | 255.5 °C | – | – |
| CC(=O)N1CC(c2ccc(-c3cnn4c3C(=O)N(c3ccc(C(F)(F)F)cc3)C[C@@H]4C)cn2)C1 [compound 235] | 1.26e-06 M | 102% | – | 93 °C | – | – |
| Cc1cc(-c2cnn3c2C(=O)N(c2ccc(SC(F)(F)F)cc2)C[C@@H]3C)ccn1 [compound 236] | 7.24e-09 M | 105% | > 2.5 mg/kg | – | – | – |
| COc1cc(-c2cnn3c2C(=O)N(c2ccc(C(F)(F)F)c(OC)n2)C[C@@H]3C)ccn1 [compound 240] | 6.76e-09 M | 109% | – | 107.87 °C (dec.) | – | – |
| CNc1cc(-c2cnn3c2C(=O)N(c2ccc(C(F)(F)F)cc2)C[C@@H]3C)cc(OC)n1 [compound 242] | 1.29e-08 M | 110% | > 2.5 mg/kg | – | – | – |
| CNc1cc(-c2cnn3c2C(=O)N(c2ccc(C(F)(F)F)c(C)c2)C[C@@H]3C)ccn1 [compound 251] | 6.31e-09 M | 116% | > 0.63 mg/kg | – | – | – |
| CCNc1cc(-c2cnn3c2C(=O)N(c2ccc(C(F)(F)F)c(Cl)c2)C[C@@H]3C)ccn1 [compound 255] | 1.51e-09 M | 107% | 0.79 mg/kg | – | – | – |
| CCNc1cc(-c2cnn3c2C(=O)N(c2ccc(C(F)(F)F)c(C)c2)C[C@@H]3C)ccn1 [compound 256] | 3.63e-09 M | 108% | ≥ 2.5 mg/kg | – | – | – |
| CCNc1cc(-c2cnn3c2C(=O)N(c2ccc(Cl)c(Cl)c2)C[C@@H]3C)ccn1 [compound 257] | 3.63e-09 M | 108% | ≥ 2.5 mg/kg | – | – | – |
| CC(C)Nc1cc(-c2cnn3c2C(=O)N(c2ccc(C(F)(F)F)cc2)C[C@@H]3C)ccn1 [compound 266] | 5.25e-08 M | 106% | – | 173.08 °C | – | – |
| Cc1cc(N2C[C@H](C)n3ncc(-c4ccnc(NC(C)C)c4)c3C2=O)ccc1C(F)(F)F [compound 267] | 2.24e-08 M | 107% | – | 131.3 °C | – | – |
